Patent US12544368B2, “Compositions and methods for reducing cancer stem cells” (The Regents of the University of Colorado, A Body Corporate, priority 2018, dated 2026)

Columns and labels:
[1] = system: relapsed AML patient sample; assay: Engraftment of APO866-treated relapsed AML patient sample into immune deficient mice; type: in vivo; conditions: sample treated for 24 hours before engraftment
malate dehydrogenase = assay: TCA cycle enzyme activity in relapsed LSCs after APO866; type: cell-based, human; conditions: 4 hours
[2] = system: α-ketoglutarate dehydrogenase; assay: TCA cycle enzyme activity in relapsed LSCs after APO866; type: cell-based, human; conditions: 4 hours
isocitrate dehydrogenase = assay: as above; type: cell-based, human; conditions: 4 hours
de novo LSCs = assay: APO866 treatment of LSCs from de novo AML patients (NAD+, viability, colony formation, OXPHOS); type: cell-based, human
Excerpt: (§1) To determine if nicotinamide metabolism is important in LSC survival, particularly in the context of relapsed disease, LSCs were first isolated from de novo AML and relapsed AML patients and analyzed. […] Nicotinamide is a precursor of NAD+, an essential coenzyme in energy metabolism. To test if relapsed LSCs are dependent on nicotinamide metabolism to maintain energy metabolism, nicotinamide metabolism was disrupted in LSCs using the small molecule APO866, which is an inhibitor of Nampt, the rate-limiting enzyme for conversion of nicotinamide to NAD+.
(§2) To better understand the mechanism by which inhibiting nicotinamide metabolism targets relapsed LSCs, changes in OXPHOS and glycolysis activity in de novo and relapsed LSCs after APO866 treatment was measured. […] No change in glycolysis was observed.

relapsed LSCs = assay: APO866 treatment of LSCs from relapsed AML patients (NAD+, viability, colony formation, OXPHOS, glycolysis, metabolic flux); type: cell-based, human
Excerpt: as §1, §2
To determine how APO866 reduced OXPHOS, stable isotope metabolic flux of amino acids, the fatty acid palmitate, and glucose into the TCA cycle after APO866 treatment was measured.

CD34+/CD38−/CD123+ cells = assay: Viability of cell populations from MDS patient samples in vitro; type: cell-based, human; conditions: for viability / killing of CD123+ MDS stem cells: MDS patient samples, anisomycin 200 nM and 400 nM, ABT-199 200 nm, omacetaxine 200 nM, azacitidine 2.5 μM
Procedure: Strategies involving inhibiting protein translation were investigated as a means of improving therapeutic outcomes for MDS through the targeting of pathways deregulated in the CD123+ MDS stem cell compartment. A reagent grade compound, anisomycin was tested. Anisomycin is known to inhibit protein translation and induce “ribotoxic stress”.
(§3) Next, the drug omacetaxine mepesuccinate was tested. Omacetaxine is a protein synthesis inhibitor which is FDA approved.
The drug azacitidine was also tested.
The second major phenotype found to be deregulated in CD123+ cells was oxidative phosphorylation and redox status. Thus, the ability of the BCL-2 inhibitor ABT-199 (venetoclax) to preferentially eliminate MDS stem cells was tested.

ETC complex II = assay: Glutathione, sdhA glutathionylation and ETC complex II activity in primary AML specimens in vitro; type: cell-based, human
MDS stem cells = assay: Patient bone marrow derived xenograft model of MDS in NSG-S mice; type: in vivo; conditions: for engraftment models with single agent toxicity for human CD45+ cells: three high-risk MDS patient xenografts
Excerpt: To further evaluate the clinical potential of various agents for targeting of MDS stem cells, an in vivo patient bone marrow derived xenograft model of MDS was developed. The system employed the use of primary MDS specimens transplanted into immune deficient NSG-S mice.
Xenografts established using specimens from three independent high-risk MDS patients were used. Drug treatments included single agent therapy with omacetaxine, venetoclax (ABT), azacitidine, the combination of omacetaxine and venetoclax, or the combination of omacetaxine and azacitidine. To evaluate overall drug activity, the reduction of total human hematopoietic cells was measured using the CD45 (pan-hematopoietic) antigen as a marker. […] Next, drug activity in the stem cell compartment was monitored by gating on the CD34+/CD38−/CD123+ subpopulation.

LSCs = assay: In vitro viability of LSCs from AML patient samples; type: cell-based, human
ROS-low LSCs = assay: In vitro amino acid uptake, amino acid levels and transporter expression in LSCs; type: cell-based, human; conditions: LSCs isolated from three patients
Procedure: Amino acid levels and cell viability were then measured.

AML blasts = assay: OXPHOS (seahorse assay) in leukemia cells from patients pre and 24 hours post treatment; type: in vivo, human; conditions: patients receiving single agent
protein synthesis = assay: Protein translation levels (OP-puro) in MDS cells; type: cell-based, human; conditions: MDS patient samples, 4 hours
Procedure: The upregulation of the translation gene sets indicates a potential for increased protein synthesis in the CD123+ stem cell population. To further investigate changes in translational activity, protein synthesis levels were measured by culturing cells with a fluorescent substrate known as OP-puro, which is incorporated into newly synthesized polypeptide chains and can be quantified as a measure of overall protein synthesis activity.
as §3

primary MDS cells = assay: Mitochondrial respiration of primary MDS cells; type: cell-based, human
Excerpt: An additional component of the efficacy observed with combined ABT-199 and omacetaxine may involve suppression of MCL-1 as increased MCL-1 expression in CD34+/CD123+ MDS cells was observed. Resistance to BCL-2 inhibition can be overcome via treatment with protein synthesis inhibitors, which down-regulate expression of MCL-1.

CD34+ cells = assay: Valinomycin treatment of normal CD34+ cells; type: cell-based, human; conditions: control and shFIS1 CD34+ cells
[3] = system: LSCs and non-LSCs from human AML specimens; assay: Valinomycin treatment of freshly sorted LSCs and non-LSCs; type: cell-based
Procedure: To determine whether primary AML cells with a higher expression of FIS1 have increased mitophagy activity, valinomycin treatment experiments were performed on freshly sorted LSCs and non-LSCs from human AML specimens.

MOLM-13 cells = assay: Valinomycin-induced mitophagy in MOLM-13 cells; type: cell-based, human; conditions: control MOLM-13 cells
Procedure: To test whether FIS1 is responsible for the distinct mitochondrial morphology, shRNA-mediated knockdown studies in both the AML cell line MOLM-13 and primary AML cells were performed to examine the effect of FIS1 loss on mitochondrial dynamics. […] To determine if the increased mitochondrial content in FIS1-depleted AML cells is caused by a deficient state of mitophagy, mitophagy was induced in the FIS1-depleted and control cells using the mitochondrial stress inducer valinomycin. […] Expression of PINK1, a kinase stabilized upon mitophagy activation and involved in the clearance of damaged mitochondria was also measured.

O=C(/C=C/c1cccnc1)NCCCCC1CCN(C(=O)c2ccccc2)CC1 [APO866]
leukemia engraftment [1]: significant reduction in leukemia engraftment
malate dehydrogenase activity (malate dehydrogenase): significantly decreased
normal hematopoietic stem cell frequency or colony forming ability (normal HSPCs): did not affect
α-ketoglutarate dehydrogenase activity [2]: significantly decreased
isocitrate dehydrogenase activity (isocitrate dehydrogenase): significantly decreased
NAD+ (de novo LSCs; LSCs from de novo AML patient samples): significant decrease in NAD+
viability and colony-forming ability (de novo LSCs; LSCs from de novo, untreated patients, 24 hours): not LSCs from de novo, untreated patients
OXPHOS and OXPHOS capacity (de novo LSCs; de novo LSCs, 4 hours): not de novo LSCs
NAD+ (relapsed LSCs; LSCs from relapsed AML patient samples): significant decrease in NAD+
viability and colony-forming ability (relapsed LSCs; LSCs from relapsed AML patients, 24 hours): decreased viability and colony-forming ability
glycolysis (relapsed LSCs; de novo and relapsed LSCs): No change
OXPHOS and OXPHOS capacity (relapsed LSCs; relapsed LSCs, 4 hours): significant decrease
citrate, malate, and α-ketoglutarate from amino acids and palmitate (relapsed LSCs; stable isotope metabolic flux): increased accumulation
glycolysis or glucose contribution to the TCA cycle (relapsed LSCs; stable isotope metabolic flux): No changes

COc1ccc(C[C@H]2NC[C@H](O)[C@H]2OC(C)=O)cc1 [Anisomycin, anisomycin]
viability / killing of CD123+ MDS stem cells (CD34+/CD38−/CD123+ cells): selective killing

Nc1ncn([C@@H]2O[C@H](CO)[C@@H](O)[C@H]2O)c(=O)n1 [azacitidine]
ROS levels (ETC complex II): can increase ROS levels
engraftment models with single agent toxicity for human CD45+ cells (MDS stem cells): one
viability / killing of CD123+ MDS stem cells (CD34+/CD38−/CD123+ cells): no significant decreases in viability
toxicity between CD123+ vs. CD123− (CD34+/CD38−/CD123+ cells; seven high-risk MDS patient specimens): no differential toxicity
ROS-low LSC and ROS-high AML blast viability (LSCs; in vitro, 500 nM venetoclax, 2.5 μM azacitidine, 24 hours): potentiates the effect of venetoclax
amino acid transporter expression (ROS-low LSCs): Neither venetoclax nor azacitidine could reduce expression
patients without alterations in OXPHOS levels (AML blasts): two of three

CCOC(=O)[C@@]1(CCCCCCOc2ccc(Cl)cc2)CO1 [etomoxir]
sensitization of LSCs (LSCs; venetoclax/azacitidine resistant LSCs): potently sensitizes LSCs to venetoclax+azacitidine

COC(=O)C[C@](O)(CCCC(C)(C)O)C(=O)O[C@@H]1C(OC)=C[C@]23CCCN2CCc2cc4c(cc2[C@H]13)OCO4 [omacetaxine, omacetaxine mepesuccinate]
protein translation levels (protein synthesis): effective at decreasing protein translation levels
engraftment models with single agent toxicity in the more primitive cells (MDS stem cells; CD34+/CD38−/CD123+ subpopulation): 2 of 3
reduction in CD34+/CD38−/CD123+ cells (MDS stem cells; each xenograft): greater than or equal to 50%
reduction in CD34+/CD38−/CD123+ cells (MDS stem cells; one xenograft): > 80%
engraftment models with single agent toxicity for human CD45+ cells (MDS stem cells): two
viability / killing of CD123+ MDS stem cells (CD34+/CD38−/CD123+ cells): specifically targeted CD123+ cells
mitochondrial respiration (primary MDS cells): impairs mitochondrial respiration

CC(C)[C@@H]1NC(=O)[C@H](C)OC(=O)[C@@H](C(C)C)NC(=O)[C@@H](C(C)C)OC(=O)[C@H](C(C)C)NC(=O)[C@H](C)OC(=O)[C@@H](C(C)C)NC(=O)[C@@H](C(C)C)OC(=O)[C@H](C(C)C)NC(=O)[C@H](C)OC(=O)[C@@H](C(C)C)NC(=O)[C@@H](C(C)C)OC1=O [valinomycin]
mitochondrial mass (CD34+ cells): induced mitochondrial accumulation
mitochondrial mass in LSCs ([3]; freshly sorted LSCs): efficient clearance of mitochondria
mitochondrial mass in non-LSCs ([3]; freshly sorted non-LSCs): further accumulation of mitochondrial mass
mitochondrial content (MOLM-13 cells): loss of mitochondria
PINK1 expression (MOLM-13 cells; 5 mM valinomycin for 3 hr): increased PINK1 expression

sorbitan sesquioleate [SSO]
normal HSPCs viability or colony forming ability (normal HSPCs): did not affect
